Key:
[1] = target: T1, NEP (Homo sapiens, UniProt P08473); conditions: reported in U.S. Patent Application Publication No. 2013/0109639; cited from earlier work
Target sequence in this assay (P08473 whole entry): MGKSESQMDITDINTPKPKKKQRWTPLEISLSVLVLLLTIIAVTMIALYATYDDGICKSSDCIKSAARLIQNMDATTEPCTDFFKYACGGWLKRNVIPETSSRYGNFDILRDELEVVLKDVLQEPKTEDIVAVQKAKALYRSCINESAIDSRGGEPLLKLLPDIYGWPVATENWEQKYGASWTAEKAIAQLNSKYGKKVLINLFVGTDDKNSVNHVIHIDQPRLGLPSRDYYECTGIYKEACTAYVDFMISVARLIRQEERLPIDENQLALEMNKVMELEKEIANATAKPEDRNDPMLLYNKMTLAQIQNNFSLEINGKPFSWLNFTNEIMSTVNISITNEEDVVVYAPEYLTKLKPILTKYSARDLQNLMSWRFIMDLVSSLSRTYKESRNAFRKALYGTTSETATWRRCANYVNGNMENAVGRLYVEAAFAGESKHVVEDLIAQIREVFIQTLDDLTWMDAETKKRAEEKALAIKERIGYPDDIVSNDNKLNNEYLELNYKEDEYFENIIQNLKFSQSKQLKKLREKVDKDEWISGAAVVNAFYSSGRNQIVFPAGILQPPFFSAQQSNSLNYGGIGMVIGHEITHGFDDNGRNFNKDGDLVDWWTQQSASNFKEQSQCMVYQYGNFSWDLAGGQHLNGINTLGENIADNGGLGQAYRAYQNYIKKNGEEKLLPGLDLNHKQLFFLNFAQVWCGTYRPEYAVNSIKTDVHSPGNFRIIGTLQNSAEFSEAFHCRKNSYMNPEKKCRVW

[2] = IV/PO pharmacokinetic study in rats (Assay 3); assay type: in vivo; conditions: male, Sprague-Dawley, plasma; rat, IV; analyte = compound dosed (active metabolite); read-out: AUClast Mean
Description: (§1) Each rat or dog pharmacokinetic study began with formulation of the test compound. Appropriate masses of each test compound were added into a volume of vehicle (e.g. 5% sodium bicarbonate, 5% dextrose in water) such that the final concentration of each compound was appropriate to be dosed at 2 mL/kg. Although a homogenous suspension were acceptable for oral dosing, intravenous dosing solutions were sterile-filtered (0.2 μm) prior to dosing to ensure no particulates were administered.
In the rat study, pre-cannulated male Sprague-Dawley rats (3 per route) between 8 and 10 weeks of age were obtained from Harlan Laboratories (Indianapolis, Ind.). Rats received either a single oral gavage or a single intravenous (via lateral tail vein) dose of the dosing solution. The final dose was typically 0.5-3 mg/kg. Serial blood samples were harvested via the cannula implanted in the jugular vein at 3 minutes, 15 minutes, 30 minutes, 1 hour, 2 hours, 4 hours, 6 hours, and 24 hours post-dose. Sampling was performed either manually or using automated blood samplers. Samples were collected into microtainer tubes containing sodium fluoride, potassium oxalate and paraoxon, and were processed to plasma by refrigerated centrifugation.
(§2) Plasma samples were extracted with 3 volumes of MeCN containing a suitable internal standard. Extracts were reconstituted into 3 volumes of water containing 1% formic acid, and analyzed via HPLC-coupled MS/MS. Plasma concentration-time data were analyzed using the Phoenix software (Pharsight Corp., St. Louis, Mo.) to calculate pharmacokinetic parameters.

[3] = target: T2, Rat NEP (Rattus norvegicus, UniProt P07861); test: In vitro enzyme inhibition assay, rat NEP (Assay 1); assay type: biochemical; conditions: NEP from rat kidneys; read-out: rat pKi (converted)
T2 construct: leaving a viscous oily precipitate containing the enriched membrane fraction; from tissue; host or cells: kidneys of adult Sprague Dawley rats (Triton X-114 enriched membrane fraction)
T2 sequence (P07861 1-750): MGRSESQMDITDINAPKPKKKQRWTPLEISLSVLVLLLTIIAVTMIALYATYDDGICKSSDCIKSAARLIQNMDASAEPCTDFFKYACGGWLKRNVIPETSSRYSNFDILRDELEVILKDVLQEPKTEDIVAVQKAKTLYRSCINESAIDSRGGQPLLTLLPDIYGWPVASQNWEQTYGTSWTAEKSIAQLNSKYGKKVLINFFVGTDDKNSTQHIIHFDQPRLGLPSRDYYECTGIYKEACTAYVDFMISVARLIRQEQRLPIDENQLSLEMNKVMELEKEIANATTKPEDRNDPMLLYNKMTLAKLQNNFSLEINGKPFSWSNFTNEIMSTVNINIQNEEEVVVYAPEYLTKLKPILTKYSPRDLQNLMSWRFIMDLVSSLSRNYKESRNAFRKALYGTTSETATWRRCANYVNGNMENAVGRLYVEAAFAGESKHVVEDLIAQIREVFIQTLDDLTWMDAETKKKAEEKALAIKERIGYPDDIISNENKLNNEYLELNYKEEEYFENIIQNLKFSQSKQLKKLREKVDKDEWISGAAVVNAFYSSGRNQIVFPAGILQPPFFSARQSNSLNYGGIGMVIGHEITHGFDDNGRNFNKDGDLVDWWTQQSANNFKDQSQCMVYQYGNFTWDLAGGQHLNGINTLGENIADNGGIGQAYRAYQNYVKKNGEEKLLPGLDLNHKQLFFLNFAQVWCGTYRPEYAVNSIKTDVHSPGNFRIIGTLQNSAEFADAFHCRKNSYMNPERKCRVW
Description: (§3) The inhibitory activities at human and rat neprilysin (EC 3.4.24.11; NEP) were determined using in vitro assays as described below.
Rat NEP was prepared from the kidneys of adult Sprague Dawley rats. Whole kidneys were washed in cold phosphate buffered saline (PBS) and brought up in ice-cold lysis buffer (1% Triton X-114, 150 mM NaCl, 50 mM tris(hydroxymethyl) aminomethane (Tris) pH 7.5; Bordier (1981) J. Biol. Chem. 256: 1604-1607) in a ratio of 5 mL of buffer for every gram of kidney. Samples were homogenized on ice using a polytron hand held tissue grinder. Homogenates were centrifuged at 1000×g in a swinging bucket rotor for 5 minutes at 3° C. The pellet was resuspended in 20 mL of ice cold lysis buffer and incubated on ice for 30 minutes. Samples (15-20 mL) were then layered onto 25 mL of ice-cold cushion buffer (6% w/v sucrose, 50 mM pH 7.5 Tris, 150 mM NaCl, 0.06%, Triton X-114), heated to 37° C. for 3-5 minutes and centrifuged at 1000×g in a swinging bucket rotor at room temperature for 3 minutes. The two upper layers were aspirated off, leaving a viscous oily precipitate containing the enriched membrane fraction. Glycerol was added to a concentration of 50% and samples were stored at −20° C. Protein concentrations were quantitated using a BCA detection system with bovine serum albumin (BSA) as a standard.
(§4) The assays were performed in 384-well white opaque plates at 37° C. using the fluorogenic peptide substrate at a concentration of 10 μM in Assay Buffer (50 mM HEPES, pH 7.5, 100 mM NaCl, 0.01% polyethylene glycol sorbitan monolaurate (Tween-20), 10 μM ZnSO4).
(§5) Test compounds were assayed over the range of concentrations from 10 μM to 20 pM. Test compounds were added to the enzyme and incubated for 30 minute at 37° C. prior to initiating the reaction by the addition of substrate. Reactions were terminated after 20 minutes of incubation at 37° C. by the addition of glacial acetic acid to a final concentration of 3.6% (v/v).
(§6) Plates were read on a fluorometer with excitation and emission wavelengths set to 320 nm and 405 nm, respectively. Inhibition constants were obtained by nonlinear regression of the data using the equation (GraphPad Software, Inc., San Diego, Calif.): v=v0/[1+(I/K′)] where v is the reaction rate, v0 is the uninhibited reaction rate, I is the inhibitor concentration and K′ is the apparent inhibition constant.

[4] = IV/PO pharmacokinetic study in dogs (Assay 3); assay type: in vivo; conditions: male, beagle, plasma, dog, read-out: AUClast Mean
Description: as §1
In the dog study, male beagle dogs (3 per route) housed at Agilux Laboratories (Worcester, Mass.) and weighing between 7-12 kg received either a single oral gavage or a single intravenous (via indwelling catheter) dose of the dosing solution. The final dose was typically 0.1-2 mg/kg. Serial blood samples were harvested via direct venipuncture at 3 minutes, 15 minutes, 30 minutes, 1 hour, 2 hours, 4 hours, 6 hours, 8 hours, 12 hours, and 24 hours post-dose. All samples were collected manually into microtainer tubes containing sodium fluoride, potassium oxalate and paraoxon, and were processed to plasma by refrigerated centrifugation.
as §2

[5] = target: T1, NEP; test: In vitro enzyme inhibition assay, human NEP (Assay 1); assay type: biochemical; design: purchased R&D Systems 1182-ZN; conditions: read-out: human pKi (converted)
Description: as §3
Target sequence in this assay (P08473 52-750 limits assumed): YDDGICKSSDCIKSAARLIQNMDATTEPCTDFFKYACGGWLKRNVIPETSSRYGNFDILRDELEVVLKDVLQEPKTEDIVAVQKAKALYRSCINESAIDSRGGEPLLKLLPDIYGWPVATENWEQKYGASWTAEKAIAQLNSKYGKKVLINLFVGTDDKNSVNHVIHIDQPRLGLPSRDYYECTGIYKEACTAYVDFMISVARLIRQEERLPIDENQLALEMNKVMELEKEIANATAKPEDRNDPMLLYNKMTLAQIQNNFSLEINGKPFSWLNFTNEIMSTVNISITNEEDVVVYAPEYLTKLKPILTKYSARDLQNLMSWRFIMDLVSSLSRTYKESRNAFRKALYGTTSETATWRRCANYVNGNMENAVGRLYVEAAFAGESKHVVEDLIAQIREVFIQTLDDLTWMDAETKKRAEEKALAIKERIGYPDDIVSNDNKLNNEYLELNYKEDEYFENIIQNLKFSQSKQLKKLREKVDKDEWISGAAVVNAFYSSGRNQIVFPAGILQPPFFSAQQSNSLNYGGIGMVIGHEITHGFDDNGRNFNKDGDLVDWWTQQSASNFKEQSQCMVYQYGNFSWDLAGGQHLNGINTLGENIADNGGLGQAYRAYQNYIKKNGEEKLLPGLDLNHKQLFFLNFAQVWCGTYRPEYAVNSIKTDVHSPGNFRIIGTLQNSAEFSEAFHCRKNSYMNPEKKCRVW
Recombinant human NEP was obtained commercially (R&D Systems, Minneapolis, Minn., catalog number 1182-ZN). The fluorogenic peptide substrate Mca-D-Arg-Arg-Leu-Dap-(Dnp)-OH (Medeiros et al. (1997) Braz. J. Med. Biol. Res. 30:1157-62; Anaspec, San Jose, Calif.) was used.
as §4, §5, §6

[6] = Renal excretion in male beagle dogs (Assay 4); assay type: in vivo; conditions: dog, IV 1.0 mg/kg
Description: An important factor for insuring appropriate long term drug dosing and correct steady-state drug concentrations in patients is drug clearance. In general, decreased drug clearance results in higher drug concentrations and greater drug effects.
Male beagle dogs (N=3), having body weights of 9.58-10.42 kg, received an IV dose of 1.0 mg/kg of Compound 1. Compound 1 was formulated in 5% NaHCO3 in D5W. The dogs were fasted overnight and pretreated with pentagastrin (60 μg/mL, 0.1 mL/kg, IM) approximately 30 minutes prior to dose administration to stimulate gastric secretion. Food was returned approximately 4 hours postdose. Urine samples were collected surrounded by cold ice packs during the collection period. After 24 hours, the sample weight was recorded, the sample was thoroughly mixed, and aliquots were obtained and frozen (−80° C.) prior to bioanalysis.
Dog urine concentrations of Compound 1 were determined by LC/MS/MS. Urine study samples (diluted in plasma) were vortexed and 50 μL was placed in a 96-well plate. The samples were extracted with acetonitrile with internal standard chrysin. The extract was centrifuged and supernatant was transferred to a new 96-well plate and diluted 1 part sampe in 4 parts water with 0.2% formic acid. Samples (12 μL) were injected on a Waters Acquity UPLC BEH C18 (50×2.1 mm, 1.7 μm) column with a flow rate of 0.9 mL/min. […]

[7] = Exposure of crystals to ambient conditions; assay type: physicochemical

| SMILES | pKi at NEP [1] | AUC(0-t) [2] [ng·h/mL] | Ki [3] [nM] | AUC(0-t) ([4]; IV, analyte = compound dosed (active metabolite)) [ng·h/mL] | Ki [5] [nM] | Amount of Compound 1 Excreted in Urine over Collection Period (0-24 hrs) Mean [6] [µg] | Urinary Excretion (approximate % of administred dose excreted in urine) Mean ([6]; 0-24 hrs, 1 mg/kg) [%] | AUC(0-t) ([4]; PO, analyte = compound dosed (prodrug)) [ng·h/mL] | behaviour of crystals at ambient conditions (in words) [7] |
| --- | --- | --- | --- | --- | --- | --- | --- | --- | --- |
| C[C@@](CO)(C[C@@H](Cc1ccc(-c2cc(Cl)ccc2F)cc1)NC(=O)C(=O)O)C(=O)O [Comparison Compound C2, (2S,4R)-5-(5′-Chloro-2′-fluorobiphenyl-4-yl)-2-hydroxymethyl-2-methyl-4-(oxalylamino)pentanoic Acid] | ≥ 9 | 16000 | 0.316 | 1970 | 0.631 |  |  |  |  |
| CCOC(=O)C(=O)N[C@H](Cc1ccc(-c2cc(Cl)ccc2F)cc1)C[C@@](C)(CO)C(=O)O [Compound 1, (2S,4R)-5-(5′-Chloro-2′-fluorobiphenyl-4-yl)-4-(ethoxyoxalylamino)-2-hydroxymethyl-2-methylpentanoic Acid] |  |  | 0.794 |  | 0.794 | 28.9 | 0.284 | 3.7 |  |
| CCOC(=O)C(=O)N[C@H](Cc1ccc(-c2cc(Cl)ccc2F)cc1)C[C@@](C)(CO)C(=O)O [Compound 1″, L-Arginine (2S,4R)-5-(5′-Chloro-2′-fluoro-[1,1′-bipheny]-4-yl)-4-(2-ethoxy-2-oxoacetamido)-2-(hydroxymethyl)-2-methylpentanoate] |  |  |  |  |  |  |  |  | slow deliquescence |

Reference: US9868698B2, “(2S,4R)-5-(5′-chloro-2′-fluorobiphenyl-4-yl)-4-(ethoxyoxalylamino)-2-hydroxymethyl-2-methylpentanoic acid” (THERAVANCE BIOPHARMA R&D IP, LLC, priority 2015, dated 2018)
